Test results published in ChEMBL document CHEMBL4138123, “Design, synthesis and biological evaluation of novel pyrazolochalcones as potential modulators of PI3K/Akt/mTOR pathway and inducers of apoptosis in breast cancer cells” (Eur J Med Chem, 2017).

Tests used:
Format in all cases: functional
[1] = system: NCI-H460; assay: Cytotoxicity against human NCI-H460 cells assessed as growth inhibition after 48 hrs by sulforhodamine B assay; conditions: NCI-H460, 48 h
[2] = system: SF-268; assay: Cytotoxicity against human SF268 cells assessed as growth inhibition after 48 hrs by sulforhodamine B assay; conditions: SF-268, 48 h; for CC50: read-out: LC50 (the source's name)
[3] = system: ACHN; assay: Cytotoxicity against human ACHN cells assessed as growth inhibition after 48 hrs by sulforhodamine B assay
[4] = system: SN12C; assay: Cytotoxicity against human SN12C cells assessed as growth inhibition after 48 hrs by sulforhodamine B assay
[5] = system: OVCAR-5; assay: Cytotoxicity against human OVCAR5 cells assessed as cell growth at 0.01 uM after 48 hrs by sulforhodamine B assay relative to control; conditions: OVCAR-5, 48 h, read-out: Activity
[6] = system: SK-MEL-28; assay: Cytotoxicity against human SK-MEL-28 cells assessed as cell growth at 0.01 uM after 48 hrs by sulforhodamine B assay relative to control; conditions: SK-MEL-28, 48 h, read-out: Activity
[7] = system: NCI-H460; assay: Cytotoxicity against human NCI-H460 cells assessed as cell growth at 0.01 uM after 48 hrs by sulforhodamine B assay relative to control; conditions: NCI-H460, 48 h, read-out: Activity
[8] = system: K562; assay: Cytotoxicity against human K562 cells assessed as cell growth at 0.01 uM after 48 hrs by sulforhodamine B assay relative to control; conditions: K562, 48 h, read-out: Activity
[9] = system: RXF 393; assay: Cytotoxicity against human RXF393 cells assessed as cell growth at 0.01 uM after 48 hrs by sulforhodamine B assay relative to control; conditions: RXF 393, 48 h, read-out: Activity
[10] = system: MCF7; assay: Cytotoxicity against human MCF7 cells assessed as cell growth at 0.01 uM after 48 hrs by sulforhodamine B assay relative to control; conditions: MCF7, 48 h, read-out: Activity
[11] = system: MDA-MB-231; assay: Cytotoxicity against human MDA-MB-231 cells assessed as cell growth at 0.01 uM after 48 hrs by sulforhodamine B assay relative to control; conditions: MDA-MB-231, 48 h, read-out: Activity
[12] = system: Hs-578T; assay: Cytotoxicity against human Hs 578T cells assessed as cell growth at 0.01 uM after 48 hrs by sulforhodamine B assay relative to control; conditions: read-out: Activity
[13] = system: K562; assay: Cytotoxicity against human K562 cells assessed as cell growth at 0.1 uM after 48 hrs by sulforhodamine B assay relative to control; conditions: K562, 48 h, read-out: Activity
[14] = system: A549; assay: Cytotoxicity against human A549/ATCC cells assessed as cell growth at 0.1 uM after 48 hrs by sulforhodamine B assay relative to control; conditions: A549, 48 h, read-out: Activity
[15] = system: NCI-H322M; assay: Cytotoxicity against human NCI-H322M cells assessed as cell growth at 0.1 uM after 48 hrs by sulforhodamine B assay relative to control; conditions: read-out: Activity
[16] = system: SK-OV-3; assay: Cytotoxicity against human SKOV3 cells assessed as cell growth at 0.1 uM after 48 hrs by sulforhodamine B assay relative to control; conditions: SK-OV-3, 48 h, read-out: Activity
[17] = system: MOLT-4; assay: Cytotoxicity against human MOLT4 cells assessed as cell growth at 1 uM after 48 hrs by sulforhodamine B assay relative to control; conditions: MOLT-4, 48 h, read-out: Activity
[18] = system: RPMI-8226; assay: Cytotoxicity against human RPMI8226 cells assessed as cell growth at 1 uM after 48 hrs by sulforhodamine B assay relative to control; conditions: RPMI-8226, 48 h, read-out: Activity
[19] = system: NCI-H522; assay: Cytotoxicity against human NCI-H522 cells assessed as cell growth at 1 uM after 48 hrs by sulforhodamine B assay relative to control; conditions: NCI-H522, 48 h, read-out: Activity
[20] = system: HCT-15; assay: Cytotoxicity against human HCT15 cells assessed as cell growth at 1 uM after 48 hrs by sulforhodamine B assay relative to control; conditions: HCT-15, 48 h, read-out: Activity
[21] = system: M14; assay: Cytotoxicity against human M14 cells assessed as cell growth at 1 uM after 48 hrs by sulforhodamine B assay relative to control; conditions: M14, 48 h, read-out: Activity
[22] = system: T47D; assay: Cytotoxicity against human T47D cells assessed as cell growth at 1 uM after 48 hrs by sulforhodamine B assay relative to control; conditions: read-out: Activity
[23] = system: SR; assay: Cytotoxicity against human SR cells assessed as cell growth at 10 uM after 48 hrs by sulforhodamine B assay relative to control; conditions: read-out: Activity
[24] = system: HOP-62; assay: Cytotoxicity against human HOP62 cells assessed as cell growth at 10 uM after 48 hrs by sulforhodamine B assay relative to control; conditions: HOP-62, 48 h, read-out: Activity
[25] = system: NCI-H23; assay: Cytotoxicity against human NCI-H23 cells assessed as cell growth at 10 uM after 48 hrs by sulforhodamine B assay relative to control; conditions: NCI-H23, 48 h, read-out: Activity
[26] = system: HCT-116; assay: Cytotoxicity against human HCT116 cells assessed as cell growth at 10 uM after 48 hrs by sulforhodamine B assay relative to control; conditions: HCT-116, 48 h, read-out: Activity
[27] = system: KM12; assay: Cytotoxicity against human KM12 cells assessed as cell growth at 10 uM after 48 hrs by sulforhodamine B assay relative to control; conditions: KM12, 48 h, read-out: Activity
[28] = system: SNB-19; assay: Cytotoxicity against human SNB19 cells assessed as cell growth at 10 uM after 48 hrs by sulforhodamine B assay relative to control; conditions: SNB-19, 48 h, read-out: Activity
[29] = system: OVCAR-5; assay: Cytotoxicity against human OVCAR5 cells assessed as cell growth at 10 uM after 48 hrs by sulforhodamine B assay relative to control; conditions: OVCAR-5, 48 h, read-out: Activity
[30] = system: SR; assay: Cytotoxicity against human SR cells assessed as cell growth at 100 uM after 48 hrs by sulforhodamine B assay relative to control; conditions: read-out: Activity
[31] = system: NCI-H322M; assay: Cytotoxicity against human NCI-H322M cells assessed as cell growth at 100 uM after 48 hrs by sulforhodamine B assay relative to control; conditions: read-out: Activity
[32] = system: SW-620; assay: Cytotoxicity against human SW620 cells assessed as cell growth at 100 uM after 48 hrs by sulforhodamine B assay relative to control; conditions: SW-620, 48 h, read-out: Activity
[33] = system: NCI/ADR-RES; assay: Cytotoxicity against human NCI/ADR-RES cells assessed as cell growth at 100 uM after 48 hrs by sulforhodamine B assay relative to control; conditions: read-out: Activity
[34] = system: MDA-MB-231; assay: Cytotoxicity against human MDA-MB-231 cells assessed as cell growth at 100 uM after 48 hrs by sulforhodamine B assay relative to control; conditions: MDA-MB-231, 48 h, read-out: Activity
[35] = system: SK-MEL-2; assay: Cytotoxicity against human SK-MEL-2 cells assessed as growth inhibition after 48 hrs by sulforhodamine B assay; conditions: SK-MEL-2, 48 h

With `COc1ccc(-c2cc(/C=C/C(=O)c3ccc(N)cc3)[nH]n2)cc1` the GI50 [1] was 2.07 µM, the LC50 [1] was 20.9 µM and the TGI [1] was 4.95 µM. For the same compound, the GI50 [2] was 1.81 µM, the TGI [2] was 5.31 µM and the CC50 [2] was 45.7 µM. For the same compound, the GI50 [3] was 2.01 µM, the LC50 [3] was 49.2 µM and the TGI [3] was 10.6 µM. The GI50 [4] was 1.89 µM, the LC50 [4] was 34.9 µM and the TGI [4] was 6.63 µM. The growth at 0.01 µM [5] was 99%, the growth at 0.01 µM [6] was 98% and the growth at 0.01 µM [7] was 101%. The growth at 0.01 µM [8] was 98%, the growth at 0.01 µM [9] was 95% and the growth at 0.01 µM [10] was 84%. The growth at 0.01 µM [11] was 93%, the growth at 0.01 µM [12] was 98% and the growth at 0.1 µM [13] was 95%. For the same compound, the growth at 0.1 µM [14] was 98%, the growth at 0.1 µM [15] was 89% and the growth at 0.1 µM [16] was 103%. It also gave a growth at 1 µM [17] of 80%, a growth at 1 µM [18] of 36% and a growth at 1 µM [19] of 61%. The growth at 1 µM [20] was 50%, the growth at 1 µM [21] was 105% and the growth at 1 µM [22] was 60%. The growth at 10 µM [23] was -12%, the growth at 10 µM [24] was -15% and the growth at 10 µM [25] was 8%. It also gave a growth at 10 µM [26] of -53%, a growth at 10 µM [27] of -67% and a growth at 10 µM [28] of 5%. It also gave a growth at 10 µM [29] of -41%, a growth at 100 µM [30] of -61% and a growth at 100 µM [31] of -98%. For the same compound, the growth at 100 µM [32] was -58%, the growth at 100 µM [33] was -38% and the growth at 100 µM [34] was -65%.
Work on `COc1cc(C(=O)/C=C/c2cc(-c3ccc4c(c3)OCO4)n[nH]2)cc(OC)c1OC` yielded a GI50 [1] of 1.81 µM, an LC50 [1] of 7.84 µM and a TGI [1] of 3.77 µM. For the same compound, the GI50 [2] was 2.45 µM, the TGI [2] was 7.64 µM and the CC50 [2] was 31.2 µM. The GI50 [3] was 2.2 µM, the LC50 [3] was 18.8 µM and the TGI [3] was 4.95 µM. It also gave a GI50 [4] of 2.26 µM, an LC50 [4] of 23.4 µM and a TGI [4] of 6.28 µM. The growth at 0.01 µM [5] was 98%, the growth at 0.01 µM [6] was 100% and the growth at 0.01 µM [7] was 99%. The growth at 0.01 µM [8] was 86%, the growth at 0.01 µM [9] was 93% and the growth at 0.01 µM [10] was 89%. It also gave a growth at 0.01 µM [11] of 100%, a growth at 0.01 µM [12] of 92% and a growth at 0.1 µM [13] of 84%. The growth at 0.1 µM [14] was 98%, the growth at 0.1 µM [15] was 94% and the growth at 0.1 µM [16] was 105%. For the same compound, the growth at 1 µM [17] was 94%, the growth at 1 µM [18] was 32% and the growth at 1 µM [19] was 80%. For the same compound, the growth at 1 µM [20] was 77%, the growth at 1 µM [21] was 96% and the growth at 1 µM [22] was 68%. The growth at 10 µM [23] was -19%, the growth at 10 µM [24] was -24% and the growth at 10 µM [25] was 1%. For the same compound, the growth at 10 µM [26] was -43%, the growth at 10 µM [27] was -66% and the growth at 10 µM [28] was 7%. For the same compound, the growth at 10 µM [29] was -2%, the growth at 100 µM [30] was -17% and the growth at 100 µM [31] was -95%. The growth at 100 µM [32] was -65%, the growth at 100 µM [33] was -19% and the growth at 100 µM [34] was -97%.
With `COc1ccc(C(=O)/C=C/c2cc(-c3ccc(OC)c(OC)c3)n[nH]2)cc1OC` the GI50 [1] was 0.606 µM, the TGI [1] was 4.36 µM and the GI50 [2] was 2.09 µM. It also gave a TGI [2] of 9.82 µM, a CC50 [2] greater than 100 µM and a GI50 [35] of 2.46 µM. It also gave a TGI [35] of 5.17 µM, a GI50 [3] of 1.59 µM and a TGI [3] of 3.83 µM. It also gave a GI50 [4] of 1.92 µM, a TGI [4] of 4.82 µM and a growth at 0.01 µM [5] of 88%. The growth at 0.01 µM [6] was 89%, the growth at 0.01 µM [7] was 102% and the growth at 0.01 µM [8] was 101%. The growth at 0.01 µM [9] was 94%, the growth at 0.01 µM [10] was 85% and the growth at 0.01 µM [11] was 108%. For the same compound, the growth at 0.01 µM [12] was 93%, the growth at 0.1 µM [13] was 97% and the growth at 0.1 µM [14] was 93%. The growth at 0.1 µM [15] was 105%, the growth at 0.1 µM [16] was 97% and the growth at 1 µM [17] was 73%. It also gave a growth at 1 µM [18] of 17%, a growth at 1 µM [19] of 82% and a growth at 1 µM [20] of 53%. The growth at 1 µM [21] was 92%, the growth at 1 µM [22] was 60% and the growth at 10 µM [24] was -25%. The growth at 10 µM [25] was -30%, the growth at 10 µM [26] was -69% and the growth at 10 µM [27] was -80%. For the same compound, the growth at 10 µM [28] was -48%, the growth at 10 µM [29] was -30% and the growth at 100 µM [30] was -17%. It also gave a growth at 100 µM [31] of -48%, a growth at 100 µM [32] of -27% and a growth at 100 µM [33] of -15%. The growth at 100 µM [34] was -28%.
